According to patent US4603142A, “Cholesterol lowering method of use” (Wisconsin Alumni Research Foundation, priority 1984, dated 1986):

Assay: Animal tests of pure d-α-tocotrienol: blood cholesterol and side effects
Format: in vivo
Conditions: test animals
Text: We have isolated pure d-α-tocotrienol from barley. […] In addition to being extractable from natural sources, including barley and lemon grass oil, d-α-tocotrienol can be synthesized using available technology similar to that which has been used in the synthesis of Vitamin E and more recently as described by S. Urano et al. (J. Chem. Pharm. Bull. 31, 4341 (1983)).

CC(C)=CCC/C(C)=C/CC/C(C)=C/CC[C@]1(C)CCc2c(C)c(O)c(C)c(C)c2O1 [Cholesterol inhibitor I, 2,5,7,8-tetramethyl-2 (4,8, 12-trimethyltrideca-3,7, 11-trienyl)chroman-6-ol]
Effect on high density lipoprotein cholesterol levels: no significant effect | Side effects: no undesirable side effects | Effect on total and low density lipoprotein cholesterol (even in low concentrations): lower concentrations of total and low density lipoprotein cholesterol
